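Assay format: 96-well plates, 48-hour exposure. GI50: concentration for 50% inhibition of growth.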 Activity calls are given as the source filed them. Rule as the data show it: active = GI50 up to about 1.1 µM and inactive = higher.
Experiments:
Assay in all cases: NCI tumour cell line growth inhibition, 48 h
CAKI-1 = tested on: CAKI-1
SW-620 = tested on: SW-620
HCT-15 = tested on: HCT-15
HCT-116 = tested on: HCT-116
OVCAR-5 = tested on: OVCAR-5
OVCAR-4 = tested on: OVCAR-4
MOLT-4 = tested on: MOLT-4
SF-539 = tested on: SF-539
A549 = tested on: A549
XF498 = tested on: XF498
KM-20L2 = tested on: KM-20L2
SN12C = tested on: SN12C
HT-29 = tested on: HT-29
SK-MEL-28 = tested on: SK-MEL-28
RXF 393 = tested on: RXF 393
OVCAR-8 = tested on: OVCAR-8
SK-MEL-5 = tested on: SK-MEL-5
DMS-114 = tested on: DMS-114
RPMI-8226 = tested on: RPMI-8226
SF-295 = tested on: SF-295
HCC 2998 = tested on: HCC 2998
HOP-18 = tested on: HOP-18
ACHN = tested on: ACHN
M14 = tested on: M14
NCI-H226 = tested on: NCI-H226
LXFL 529 = tested on: LXFL 529
M19-MEL = tested on: M19-MEL
HOP-92 = tested on: HOP-92
SK-MEL-2 = tested on: SK-MEL-2
UACC-257 = tested on: UACC-257
OVCAR-3 = tested on: OVCAR-3
COLO 205 = tested on: COLO 205
SR = tested on: SR
SNB-19 = tested on: SNB-19
UO-31 = tested on: UO-31
EKVX = tested on: EKVX
SNB-75 = tested on: SNB-75
K562 = tested on: K562
DLD-1 = tested on: DLD-1
NCI-H460 = tested on: NCI-H460
NCI-H522 = tested on: NCI-H522
NCI-H23 = tested on: NCI-H23
SNB-78 = tested on: SNB-78
KM12 = tested on: KM12
RXF 631 = tested on: RXF 631
Malme-3M = tested on: Malme-3M
786-0 = tested on: 786-0
DMS-273 = tested on: DMS-273
U-251 = tested on: U-251
TK-10 = tested on: TK-10

With CC(C)C.C[N+](C)(C)C.OC(c1ccccc1)(C(F)(F)F)C(F)(F)F.OC(c1ccccc1)(C(F)(F)F)C(F)(F)F.[SiH3-] as the molecule, how does the GI50 (CAKI-1) read?
Its GI50 is 11.3 µM (inactive).

What about the GI50 (SW-620) of the same molecule?
The GI50 was 5 µM (inactive).

What about the GI50 (HCT-15) of the same molecule?
Its GI50 is 2.13 µM.

And the GI50 (HCT-116)?
Its GI50 is 3.46 µM (inactive).

What about the GI50 (OVCAR-5) of the same molecule?
Its GI50 is 2.28 µM (inactive).

What about the GI50 (OVCAR-4) of the same molecule?
Its GI50 is 7.59 µM (inactive).

And the GI50 (MOLT-4)?
Its GI50 is 1.73 µM (inactive).

What about the GI50 (SF-539) of the same molecule?
The GI50 was 2.51 µM (inactive).

What about the GI50 (A549) of the same molecule?
Its GI50 is 4.79 µM (inactive).

And the GI50 (XF498)?
The GI50 was 11.9 µM (inactive).

And the GI50 (KM-20L2)?
Its GI50 is 2.29 µM (inactive).

And the GI50 (SN12C)?
The GI50 was 5.68 µM (inactive).

And the GI50 (HT-29)?
Its GI50 is 3.64 µM (inactive).

And the GI50 (SK-MEL-28)?
Its GI50 is 12.4 µM (inactive).

And the GI50 (RXF 393)?
The GI50 was 3.18 µM (inactive).

What about the GI50 (OVCAR-8) of the same molecule?
Its GI50 is 9.23 µM (inactive).

And the GI50 (SK-MEL-5)?
The GI50 was 10.4 µM (inactive).

What about the GI50 (DMS-114) of the same molecule?
Its GI50 is 7.16 µM (inactive).

What about the GI50 (RPMI-8226) of the same molecule?
Its GI50 is 4.43 µM (inactive).

And the GI50 (SF-295)?
Its GI50 is 3.42 µM (inactive).

What about the GI50 (HCC 2998) of the same molecule?
The GI50 was 3.56 µM (inactive).

What about the GI50 (HOP-18) of the same molecule?
Its GI50 is 4.16 µM (inactive).

What about the GI50 (ACHN) of the same molecule?
The GI50 was 8.51 µM (inactive).

What about the GI50 (M14) of the same molecule?
Its GI50 is 1.05 µM (active).

And the GI50 (NCI-H226)?
Its GI50 is 1.02 µM (active).

What about the GI50 (LXFL 529) of the same molecule?
Its GI50 is 4.19 µM (inactive).

And the GI50 (M19-MEL)?
The GI50 was 12.2 µM (inactive).

And the GI50 (HOP-92)?
Its GI50 is < 0.01 µM (active).

And the GI50 (SK-MEL-2)?
Its GI50 is 9.1 µM (inactive).

And the GI50 (UACC-257)?
Its GI50 is 14.1 µM (inactive).

And the GI50 (OVCAR-3)?
The GI50 was 0.678 µM (active).

And the GI50 (COLO 205)?
Its GI50 is 6.49 µM (inactive).

And the GI50 (SR)?
Its GI50 is 2.09 µM (inactive).

What about the GI50 (SNB-19) of the same molecule?
Its GI50 is 3.26 µM (inactive).

And the GI50 (UO-31)?
Its GI50 is 5.79 µM (inactive).

And the GI50 (EKVX)?
Its GI50 is 3.73 µM (inactive).

What about the GI50 (SNB-75) of the same molecule?
The GI50 was 0.536 µM (active).

What about the GI50 (K562) of the same molecule?
The GI50 was 3.89 µM (inactive).

What about the GI50 (DLD-1) of the same molecule?
The GI50 was 2.77 µM (inactive).

What about the GI50 (NCI-H460) of the same molecule?
The GI50 was 2.04 µM (inactive).

What about the GI50 (NCI-H522) of the same molecule?
Its GI50 is 6.01 µM (inactive).

And the GI50 (NCI-H23)?
Its GI50 is 3.25 µM (inactive).

And the GI50 (SNB-78)?
Its GI50 is 10.3 µM (inactive).

What about the GI50 (KM12) of the same molecule?
The GI50 was 3.92 µM (inactive).

What about the GI50 (RXF 631) of the same molecule?
The GI50 was 2.58 µM (inactive).

And the GI50 (Malme-3M)?
Its GI50 is 11.1 µM (inactive).

And the GI50 (786-0)?
The GI50 was 2.97 µM (inactive).

And the GI50 (DMS-273)?
Its GI50 is 10.2 µM (inactive).

What about the GI50 (U-251) of the same molecule?
Its GI50 is 2.07 µM (inactive).

What about the GI50 (TK-10) of the same molecule?
The GI50 was 12.6 µM (inactive).
